From patent US7122359B2, “Active-site engineering of nucleotidylyltransferases and general enzymatic methods for the synthesis of natural and “unnatural” UDP- and TDP-nucleotide sugars” (priority 2000, dated 2006)
Entries after “also recorded” stand apart in the source; their conditions may differ.

What was measured:
[1] = target: T1, Salmonella enterica LT2 α-D-glucopyranosyl phosphate thymidylyltransferase (Ep) (Salmonella typhimurium, UniProt P26393); test: Ep-catalyzed conversion of aminodeoxy/acetamidodeoxy sugar phosphates with inorganic pyrophosphatase, HPLC (FIG. 4); type: biochemical; details: 2.5 mM NTP, 5.0 mM sugar phosphate, 10 U inorganic pyrophosphatase, 30 min, 37° C.
T1 construct: made in house; host or cells: E. coli (E. coli-prfbA-C)
Protocol: To evaluate the synthetic utility of thymidylyl-transferase, purified Ep, α-D-glucopyranosyl phosphate, Mg^+2, NTP and inorganic pyrophosphatase were incubated at 37° C. for 30 min and the extent of product formation determined by HPLC. The inorganic pyrophosphatase was included to drive the reaction forward. A reaction containing 2.5 mM NTP, 5.0 mM sugar phosphate, 5.5 mM MgCl2 and 10 U inorganic pyrophosphatase in a total volume of 50 μL 50 mM potassium phosphate buffer, pH 7.5 at 37° C. was initiated by the addition of 3.52 U Ep (1 U=the amount of protein needed to produce […] TDP-D-glucose min^−1). The reaction was incubated with slow agitation for 30 min at 37° C., quenched with MeOH (50 μL), centrifuged (5 min, 14,000×g) and the supernatant was stored at −20° C. until analysis by HPLC. Samples (30 μL) were resolved on a Sphereclone 5u SAX column (150×4.6 mm) fitted with a SecurityGuard ™ cartridge (Phenomenex; Torrance, Calif.) using a linear gradient (50–200 mM potassium phosphate buffer, pH 5.0, 1.5 mL min^−1, A275 nm).
The results of these assays are illustrated in FIG. 4. For each assay, confirmation of product formation was based upon high resolution mass spectroscopy of HPLC-isolated products and, also in some cases, HPLC co-elution with commercially available standards.
A reaction containing 2.5 mM NTP, 5.0 mM sugar phosphate, 5.5 mM MgCl2 and 10 U inorganic pyrophosphatase in a total volume of 50 μL 50 mM potassium phosphate buffer, pH 7.5 at 37° C. was initiated by the addition of 3.52 U Ep (1 U=the amount of protein needed to produce 1 μmol TDP-α-D-glucose min^−1) The reaction was incubated with slow agitation for 30 min at 37° C., quenched with MeOH (50 μL), centrifuged (5 min, 14,000×g) and the supernatant was stored at −20° C. until analysis by HPLC. Samples (30 μL) were resolved on a Sphereclone 5u SAX column (250×4.6 mm) fitted with a guard column (30×4.6 mm) using a linear gradient (50–200 mM potassium phosphate buffer, pH 5.0, 1.5 mL min^−1, A275 nm).

[2] = target: T1, Salmonella enterica LT2 α-D-glucopyranosyl phosphate thymidylyltransferase (Ep); test: Ep-catalyzed conversion of α-D-hexopyranosyl phosphates and NTP to NDP-sugars, HPLC (FIG. 2); type: biochemical; details: for activity as Ep substrate with TTP: 5 mM NTP, 10 mM sugar phosphate, 30 min, 37° C.; for utilization as NTP substrate by Ep: NTP substrate specificity
Description: FIG. 2. E^p-Catalyzed Conversion of Substrates wherein superscript indicators (a)–(h) are as follows: (a) Percent conversion=[Ap/(AP+AT)]×100, where AP is the NDP-sugar product peak integration and AT represents the NTP peak integration. HRMS for all observed products reported in the supporting information. (b) Standard retention times: TDP, […]; TTP, 7.2 mm; UDP, 4.0 mm; UTP, 6.1 mm. (c) Commercially available. (d) Coelutes with commercially available standard. […] (f) Adjusted for the 2:1 α/β-28. (g) In contrast to previously published studies (See Lindquist, L; Kaiser, R.; Reeves, P. R.; Lindberg, A. A., Eur J. Biochem, 1993, 211, 763–770). (h) No products observed.
To evaluate the synthetic utility of purified thymidylyltransferase, Ep, α-D-hexopyranosyl phosphate, Mg^+2 and NTP were incubated at about 37° C. for about 30 min and the extent of product formation determined by HPLC. The results of these assays are illustrated in FIG. 2. Confirmation of product formation was based upon HPLC co-elution with commercially available standards and/or HPLC isolation and high resolution mass spectroscopy of the product. […] A reaction containing 5 mM NTP, 10 mM sugar phosphate and 5.5 mM MgCl2 in a total volume of 50 μL 50 mM potassium phosphate buffer, pH 7.5 at 37° C. was initiated by the addition of 3.52 U Ep (1 U=the amount of protein needed to produce 1 μmol TDP-D-glucose min^−1). The reaction was incubated with slow agitation for 30 min at 37° C., quenched with MeOH (50 μL), centrifuged (5 min, 14,000×g) and the supernatant was stored at −20° C. until analysis by HPLC. Samples (20 μL) were resolved on a Sphereclone 5 u SAX column (250×4.6 mm) fitted with a guard column (30×4.6 mm) using a linear gradient (20–60 mM potassium phosphate buffer, pH 5.0, 1.5 mL min^−1, A275 nm).

[3] = target: T2, wild-type Ep (Salmonella typhimurium, UniProt P26393); test: Conversion of sugar phosphates by wild-type enzyme (FIG. 11); type: biochemical, Salmonella enterica LT2
T2 construct: made in house; host or cells: E. coli (E. coli-prfbA-C)
Protocol: (§1) FIG. 11. Percent conversion of sugar phosphates according to the present invention by wild-type and mutant enzymes. The alterations from native substrate (Glc-1-P,1) are highlighted in red. For the mutant pool, mutants Asp41Asn, Glu62Asp, Thr201A and Trp224His were pooled, concentrated and an aliquote constituting 60 μg of each mutant (corresponding to 3.5U Ep) was utilized for the assay.
Percent conversion was determined as described in Jiang, J., Biggins, J. B. & Thorson, J. S. A General Enzymatic Method for the Synthesis of Natural and “Unnatural” UDP- and TDP-Nucleotide Sugars. J. Am. Chem. Soc. 122, 6803–6804 (2000).
(§2) Assays for product formation and steady state kinetics were accomplished using conditions similar to those described. in Jiang, J., Biggins, J. B. & Thorson, J. S. A General Enzymatic Method for the Synthesis of Natural and “Unnatural” UDP- and TDP-Nucleotide Sugars. J. Am. Chem. Soc. 122, 6803-6804 (2000). For the mutant pool assays, an aliquot which contained an eqimolar ratio of each mutant (60 μg) was utilized.

[4] = target: T3, Ep Trp224His mutant (Salmonella typhimurium, UniProt P26393, W224H); test: Individual mutant analysis: Trp224His; type: biochemical, Salmonella enterica LT2; details: deconvolution of the mutant pool
T3 construct: made in house
Description: Thr102Ala, on the other hand, was responsible for the 2-fold increase in the conversion of (108). […] Yet, cumulatively, this small set of directed mutants was able to successfully turn over three of four targeted “unnatural” substrates. […] This Ep variant will serve as an excellent foundation for second generation double mutants.
as §2

[5] = test system: mutant pool (Asp41Asn, Glu62Asp, Thr201A and Trp224His Ep mutants); test: Conversion of sugar phosphates by pooled Ep mutants (FIG. 11); type: biochemical, Salmonella enterica LT2; details: 60 μg of each mutant
Protocol: as §1
As a rapid means to assay the entire pool of the four newly constructed mutants, the mutants were combined and the mixture directly tested for ability to convert compounds (2), (108), (89), (102), (38), and (127). […] Those substrates turned over include […] and (127), the two sugar phosphates not accepted or poorly accepted by wild-type Ep.
as §2

C[C@H]1O[C@H](OP(=O)([O-])[O-])[C@H](O)[C@@H](O)[C@@H]1N.[Na+].[Na+] [compound 102, Disodium-(4-amino-4,6-dideoxy-α-D-glucopyranosyl) Phosphate]
product formation with UTP [1]: greatly diminishes
product formation with dTTP [1]: does not effect

O=P([O-])([O-])O[C@H]1O[C@H](CO)[C@H](O)[C@@H](O)[C@@H]1O.[Na+].[Na+] [compound 51, Disodium α-D-idopyranosyl Phosphate]
activity as Ep substrate with TTP [2]: less activity

O=P([O-])([O-])O[C@H]1O[C@H](CO)[C@@H](O)[C@@H](O)[C@@H]1O.[Na+].[Na+] [compound 47, Disodium α-D-altropyranosyl Phosphate]
activity as Ep substrate with TTP [2]: less activity

NC[C@H]1O[C@H](OP(=O)([O-])[O-])[C@H](O)[C@@H](O)[C@@H]1O.[Na+].[Na+] [compound 85, Disodium-(6-amino-6-deoxy-α-D-glucopyranosyl) Phosphate]
product formation with dTTP [1]: little or no effect
product formation with UTP ([1]; Phosphate): exception; also recorded: adverse UTP-dependent effect upon yields

Nc1ccn([C@@H]2O[C@H](COP(=O)(O)OP(=O)(O)OP(=O)(O)O)[C@@H](O)[C@H]2O)c(=O)n1 [CTP, reference compound]
utilization as NTP substrate by Ep [2]: not and not accepted

O=P(O)(O)O[C@H]1O[C@H](CO)[C@H](O)[C@H](O)[C@H]1O [compound 57, α-D-galactopyranosyl phosphate, reference compound]
activity as Ep substrate with TTP [2]: prefers

O=P([O-])([O-])O[C@H]1O[C@H](CO)[C@@H](O)[C@@H](O)[C@H]1O.[Na+].[Na+] [compound 38, Disodium α-D-allopyranosyl Phosphate]
activity as Ep substrate with TTP [2]: less activity
acceptance / conversion by wild-type Ep [3]: poor conversion

O=C(O)[C@H]1O[C@H](OP(=O)(O)O)[C@H](O)[C@@H](O)[C@@H]1O [compound 127, α-D-glucopyranuronic acid 1-(dihydrogen phosphate)]
conversion by Trp224His mutant [4]: responsible for converting
acceptance / conversion by wild-type Ep [3]: not accepted
turnover by the mutant pool [5]: turned over

N[C@@H]1[C@@H](O)[C@@H](OP(=O)([O-])[O-])O[C@H](CO)[C@H]1O.[Na+].[Na+] [compound 96, Disodium (3-amino-3-deoxy-α-D-glucopyranosyl) Phosphate]
product formation with dTTP [1]: little or no effect

O=P([O-])([O-])O[C@@H]1C[C@@H](O)[C@H](O)[C@@H](CO)O1.[Na+].[Na+] [compound 43, Disodium 2-deoxy-α-D-glucopyranosyl Phosphate]
activity as Ep substrate with TTP [2]: prefers
Product hydrolysis observed, TDP ([2]; FIG. 2 footnote (e), TTP reaction): 7.6%
Product hydrolysis observed, UDP ([2]; FIG. 2 footnote (e), UTP reaction): 10.2%

O=P(O)(O)O[C@H]1O[C@H](CO)[C@@H](O)[C@H](O)[C@@H]1O [compound 56, α-D-mannopyranosyl phosphate, reference compound]
activity as Ep substrate with TTP [2]: prefers

CC(=O)N[C@H]1[C@H](O)[C@@H](O)[C@@H](OP(=O)([O-])[O-])O[C@@H]1CO.[Na+].[Na+] [compound 92, Disodium-(4-acetamido-4-deoxy-α-D-glucopyranosyl) Phosphate]
product formation with dTTP [1]: less activity

N[C@H]1[C@@H](OP(=O)(O)O)O[C@H](CO)[C@@H](O)[C@@H]1O [compound 107, 2-amino-2-deoxy-α-D-glucopyranosyl phosphate, reference compound]
product formation with dTTP [1]: little or no effect

N[C@H]1[C@H](O)[C@@H](O)[C@@H](OP(=O)([O-])[O-])O[C@@H]1CO.[Na+].[Na+] [compound 91, Disodium-(4-amino-4-deoxy-α-D-glucopyranosyl) Phosphate]
product formation with dTTP [1]: little or no effect

O=P([O-])([O-])O[C@H]1O[C@H](CO)[C@H](O)[C@H](O)[C@@H]1O.[Na+].[Na+] [compound 55, Disodium α-D-talopyranosyl Phosphate]
activity as Ep substrate with TTP [2]: less activity

O=P([O-])([O-])O[C@H]1O[C@H](CO)C[C@H](O)[C@H]1O.[Na+].[Na+] [compound 20, Disodium 4-deoxy-α-D-glucopyranosyl Phosphate]
activity as Ep substrate with TTP [2]: prefers

O=P([O-])([O-])O[C@H]1O[C@H](CO)[C@@H](O)C[C@H]1O.[Na+].[Na+] [compound 28, Disodium 3-deoxy-α-D-glucopyranosyl Phosphate]
activity as Ep substrate with TTP [2]: prefers

Ethyl 2,3,4,6-tetra-O-benzyl-1-thio-β-D-gulopyranoside [compound 31]
activity as Ep substrate with TTP [2]: less activity

O=c1ccn([C@@H]2O[C@H](COP(=O)(O)OP(=O)(O)OP(=O)(O)O)[C@@H](O)[C@H]2O)c(=O)[nH]1 [UTP, reference compound]
utilization as NTP substrate by Ep [2]: utilizes

C[C@H]1O[C@H](OP(=O)([O-])[O-])[C@H](O)[C@@H](O)[C@@H]1O.[Na+].[Na+] [compound 12, Disodium 6-deoxy-α-D-glucopyranosyl Phosphate]
activity as Ep substrate with TTP [2]: prefers

CC(=O)N[C@@H]1[C@@H](O)[C@@H](OP(=O)([O-])[O-])O[C@H](CO)[C@H]1O.[Na+].[Na+] [compound 97, Disodium-(3-acetamido-3-deoxy-α-D-glucopyranosyl) Phosphate]
product formation with UTP [1]: adverse UTP-dependent effect upon yields
product formation with dTTP [1]: well-tolerated
